Test results taken from PubChem BioAssay (NCI).
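A five-concentration, 48-hour dose response in 96-well plates underlies each endpoint, interpolated linearly between surrounding concentrations. TGI: total growth inhibition.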

How the values were obtained:
Assay in all cases: growth of human tumour cells (NCI), 48 h
LOX IMVI melanoma = test system: LOX IMVI melanoma
SN12C renal = test system: SN12C renal
SK-OV-3 ovarian = test system: SK-OV-3 ovarian
HCC-2998 colon = test system: HCC-2998 colon
SK-MEL-2 melanoma = test system: SK-MEL-2 melanoma
A549 NSCLC = test system: A549 NSCLC
SF-295 CNS = test system: SF-295 CNS
SF-268 CNS = test system: SF-268 CNS
HOP-18 NSCLC = test system: HOP-18 NSCLC
UACC-62 melanoma = test system: UACC-62 melanoma
KM20L2 colon = test system: KM20L2 colon
DMS 114 small cell lung = test system: DMS 114 small cell lung
A498 renal = test system: A498 renal
NCI-H226 lung = test system: NCI-H226 lung
M14 melanoma = test system: M14 melanoma
IGROV1 ovarian = test system: IGROV1 ovarian
HCT-15 colon = test system: HCT-15 colon
EKVX NSCLC = test system: EKVX NSCLC
SR leukemia = test system: SR leukemia
SK-MEL-5 melanoma = test system: SK-MEL-5 melanoma
UACC-257 melanoma = test system: UACC-257 melanoma
HT29 colon = test system: HT29 colon
NCI-H460 lung = test system: NCI-H460 lung
SW-620 colon = test system: SW-620 colon
COLO 205 colon = test system: COLO 205 colon
SNB-78 CNS = test system: SNB-78 CNS
NCI-H522 lung = test system: NCI-H522 lung
SNB-19 CNS = test system: SNB-19 CNS
CAKI-1 renal = test system: CAKI-1 renal
RPMI-8226 leukemia = test system: RPMI-8226 leukemia
CCRF-CEM leukemia = test system: CCRF-CEM leukemia
HCT-116 colon = test system: HCT-116 colon
K-562 leukemia = test system: K-562 leukemia
SF-539 CNS = test system: SF-539 CNS
OVCAR-4 ovarian = test system: OVCAR-4 ovarian
SNB-75 CNS = test system: SNB-75 CNS
LXFL 529 NSCLC = test system: LXFL 529 NSCLC
DLD-1 colon = test system: DLD-1 colon
HL-60(TB) leukemia = test system: HL-60(TB) leukemia
KM12 colon = test system: KM12 colon
OVCAR-5 ovarian = test system: OVCAR-5 ovarian
SK-MEL-28 melanoma = test system: SK-MEL-28 melanoma
MOLT-4 leukemia = test system: MOLT-4 leukemia
ACHN renal = test system: ACHN renal
HOP-62 NSCLC = test system: HOP-62 NSCLC
U251 CNS = test system: U251 CNS
M19-MEL melanoma = test system: M19-MEL melanoma
NCI-H23 lung = test system: NCI-H23 lung
OVCAR-8 ovarian = test system: OVCAR-8 ovarian
OVCAR-3 ovarian = test system: OVCAR-3 ovarian
UO-31 renal = test system: UO-31 renal
MALME-3M melanoma = test system: MALME-3M melanoma
786-0 renal = test system: 786-0 renal
RXF 393 renal = test system: RXF 393 renal
HOP-92 NSCLC = test system: HOP-92 NSCLC
DMS 273 small cell lung = test system: DMS 273 small cell lung
TK-10 renal = test system: TK-10 renal

For C/C(=C1/N=C(c2cc([N+](=O)[O-])ccc2Cl)N(c2ccc(Br)cc2)C1=O)c1cc2ccccc2oc1=O, the TGI (LOX IMVI melanoma) was greater than 100 µM, the TGI (SN12C renal) was greater than 100 µM and the TGI (SK-OV-3 ovarian) was greater than 100 µM. For the same molecule, the TGI (HCC-2998 colon) was 65.1 µM, the TGI (SK-MEL-2 melanoma) was greater than 100 µM and the TGI (A549 NSCLC) was greater than 100 µM. For the same molecule, the TGI (SF-295 CNS) was greater than 100 µM, the TGI (SF-268 CNS) was greater than 100 µM and the TGI (HOP-18 NSCLC) was greater than 100 µM. It also gave a TGI (UACC-62 melanoma) greater than 100 µM, a TGI (KM20L2 colon) greater than 100 µM and a TGI (DMS 114 small cell lung) greater than 100 µM. It also gave a TGI (A498 renal) of 66.8 µM, a TGI (NCI-H226 lung) greater than 100 µM and a TGI (M14 melanoma) greater than 100 µM. For the same molecule, the TGI (IGROV1 ovarian) was greater than 100 µM, the TGI (HCT-15 colon) was greater than 100 µM and the TGI (EKVX NSCLC) was greater than 100 µM. The TGI (SR leukemia) was greater than 100 µM, the TGI (SK-MEL-5 melanoma) was greater than 100 µM and the TGI (UACC-257 melanoma) was greater than 100 µM. For the same molecule, the TGI (HT29 colon) was greater than 100 µM, the TGI (NCI-H460 lung) was greater than 100 µM and the TGI (SW-620 colon) was greater than 100 µM. The TGI (COLO 205 colon) was 21.8 µM, the TGI (SNB-78 CNS) was greater than 100 µM and the TGI (NCI-H522 lung) was 52.4 µM. The TGI (SNB-19 CNS) was greater than 100 µM, the TGI (CAKI-1 renal) was greater than 100 µM and the TGI (RPMI-8226 leukemia) was greater than 100 µM. For the same molecule, the TGI (CCRF-CEM leukemia) was greater than 100 µM, the TGI (HCT-116 colon) was greater than 100 µM and the TGI (K-562 leukemia) was greater than 100 µM. For the same molecule, the TGI (SF-539 CNS) was greater than 100 µM, the TGI (OVCAR-4 ovarian) was greater than 100 µM and the TGI (SNB-75 CNS) was greater than 100 µM. The TGI (LXFL 529 NSCLC) was greater than 100 µM, the TGI (DLD-1 colon) was greater than 100 µM and the TGI (HL-60(TB) leukemia) was greater than 100 µM. The TGI (KM12 colon) was greater than 100 µM, the TGI (OVCAR-5 ovarian) was greater than 100 µM and the TGI (SK-MEL-28 melanoma) was greater than 100 µM. It also gave a TGI (MOLT-4 leukemia) greater than 100 µM, a TGI (ACHN renal) greater than 100 µM and a TGI (HOP-62 NSCLC) greater than 100 µM. It also gave a TGI (U251 CNS) greater than 100 µM, a TGI (M19-MEL melanoma) greater than 100 µM and a TGI (NCI-H23 lung) greater than 100 µM. The TGI (OVCAR-8 ovarian) was greater than 100 µM, the TGI (OVCAR-3 ovarian) was greater than 100 µM and the TGI (UO-31 renal) was greater than 100 µM. It also gave a TGI (MALME-3M melanoma) greater than 100 µM.
CC1(C=O)C(=O)CCC2(C)C3CC(=O)OC3CCC12 (centres undefined) gave a TGI (LOX IMVI melanoma) greater than 100 µM, a TGI (SN12C renal) greater than 100 µM and a TGI (SK-OV-3 ovarian) greater than 100 µM. It also gave a TGI (HCC-2998 colon) greater than 100 µM, a TGI (SK-MEL-2 melanoma) greater than 100 µM and a TGI (A549 NSCLC) greater than 100 µM. For the same molecule, the TGI (SF-295 CNS) was greater than 100 µM, the TGI (SF-268 CNS) was greater than 100 µM and the TGI (HOP-18 NSCLC) was greater than 100 µM. It also gave a TGI (UACC-62 melanoma) greater than 100 µM, a TGI (KM20L2 colon) greater than 100 µM and a TGI (DMS 114 small cell lung) greater than 100 µM. For the same molecule, the TGI (786-0 renal) was greater than 100 µM, the TGI (M14 melanoma) was greater than 100 µM and the TGI (IGROV1 ovarian) was greater than 100 µM. The TGI (HCT-15 colon) was greater than 100 µM, the TGI (RXF 393 renal) was greater than 100 µM and the TGI (EKVX NSCLC) was greater than 100 µM. For the same molecule, the TGI (SK-MEL-5 melanoma) was greater than 100 µM, the TGI (UACC-257 melanoma) was greater than 100 µM and the TGI (HT29 colon) was greater than 100 µM. The TGI (NCI-H460 lung) was greater than 100 µM, the TGI (SW-620 colon) was greater than 100 µM and the TGI (COLO 205 colon) was greater than 100 µM. It also gave a TGI (NCI-H522 lung) greater than 100 µM, a TGI (HOP-92 NSCLC) greater than 100 µM and a TGI (SNB-19 CNS) greater than 100 µM. It also gave a TGI (CAKI-1 renal) greater than 100 µM, a TGI (RPMI-8226 leukemia) greater than 100 µM and a TGI (CCRF-CEM leukemia) greater than 100 µM. The TGI (K-562 leukemia) was greater than 100 µM, the TGI (SF-539 CNS) was greater than 100 µM and the TGI (OVCAR-4 ovarian) was greater than 100 µM. For the same molecule, the TGI (SNB-75 CNS) was greater than 100 µM, the TGI (LXFL 529 NSCLC) was greater than 100 µM and the TGI (DLD-1 colon) was greater than 100 µM. For the same molecule, the TGI (HL-60(TB) leukemia) was greater than 100 µM, the TGI (KM12 colon) was greater than 100 µM and the TGI (OVCAR-5 ovarian) was greater than 100 µM. For the same molecule, the TGI (DMS 273 small cell lung) was greater than 100 µM, the TGI (SK-MEL-28 melanoma) was greater than 100 µM and the TGI (MOLT-4 leukemia) was greater than 100 µM. It also gave a TGI (ACHN renal) greater than 100 µM, a TGI (TK-10 renal) greater than 100 µM and a TGI (HOP-62 NSCLC) greater than 100 µM. For the same molecule, the TGI (U251 CNS) was greater than 100 µM, the TGI (M19-MEL melanoma) was greater than 100 µM and the TGI (NCI-H23 lung) was greater than 100 µM. The TGI (OVCAR-8 ovarian) was greater than 100 µM, the TGI (OVCAR-3 ovarian) was greater than 100 µM and the TGI (UO-31 renal) was greater than 100 µM. For the same molecule, the TGI (MALME-3M melanoma) was greater than 100 µM.
